Source: patent publication US6800659B2, “Compounds for modulating cell proliferation” (HSC Research and Development Limited Partnership, priority 2000, dated 2004)

What was measured:
[1] = system: normal bone marrow cells; experiment: CFU-GEMM assay: normal bone marrow differentiation in culture; assay type: cell-based
Description: (§1) The CFU-GEMM assay was performed according to Fauser and Messner (1978, Blood, 52(6) 143-8) and Messner and Fausser (1980, Blut, 41(5) 327-33) with some variations. In brief, heparinized bone marrow cells were layered over Percoll (1.077 gm/ml) (Pharmacia Fine Chemical, Piscataway N.J.) and centrifuged at 400 g at 4° C. for 10 minutes to remove neutrophils and RBCs. The fractionated BM cells at 2×10^5 cells/ml were cultured in IMDM (OCl, Toronto) containing 0.9% (vol/vol) methylcellulose supplemented with 30% FCS (Cansera Rexdale, ON.) or normal human plasma, a cocktail of cytokines containing G-CSF (10 ng/ml, Amgen), IL-3 (40 U/ml, Immunex), MGF (50 ng/ml, Immunex), Erythropoietin (2 u/ml, Epprex) or TPO (10 ng/ml, Amgen), 5×10^−5M β-2-mercaptoethanol and the specified concentration of CR4. The culture mixture was plated in 1 ml volumes into 35 mm petri dishes and incubated at 37° C., 5% CO2 in a humidified atmosphere. All cultures were evaluated at 14 days for the number of BFU-E colonies (defined as aggregates of more than 500 hemoglobinized cells or, 3 or more erythroid subcolonies), OFU-GM colonies (defined as granulocyte or monocyte-macrophage cells or both), CFU-Meg colonies (comprising 4 or more megakaryocytes) and CFU-GEMM colonies (a mixed population comprising of all elements).
as §1, with “1243-8)” for “143-8)”, “concentrations” for “concentration”, “CR19.” for “CR4.”, “hemaglobinized” for “hemoglobinized”, “subcolonies) and CFU-C” for “subcolonies), OFU-GM”, “both).” for “both), CFU-Meg colonies (comprising 4 or more megakaryocytes) and CFU-GEMM colonies (a mixed population comprising of all elements).”
as §1, with “1243-8)” for “143-8)”, “variations (British Journal of Haematology, 1992, 80, p40-48).” for “variations.”, “test compound.” for “CR4.”, “CO2,” for “CO2”, “subcolonies) and CFU-C” for “subcolonies), OFU-GM”, “both).” for “both), CFU-Meg colonies (comprising 4 or more megakaryocytes) and CFU-GEMM colonies (a mixed population comprising of all elements).”

[2] = system: Ly-MN lymphoma cells; experiment: Colony growth of Ly-MN lymphoma cells in methylcellulose culture; assay type: cell-based; conditions: colonies at 5 days (FIG. 5)
Description: Ly-MN cells were plated in 1 ml volumes, in the absence of exogenous growth factors, into 35 mm petri dishes (Nunc, Gibco) containing IMDM (OCl, Toronto) plus 20% human cord blood plasma in 0.9% (vol/vol) methylcellulose (Fluka, Switzerland) and the indicated concentrations of CR4. Cultures were set at 37° C., 5% CO2 in a humidified atmosphere. Colonies consisting of more than 20 cells were counted at 5 days or earlier using an inverted microscope.

Compound: N#C/C(=C\C=C\c1ccc(O)c(O)c1)C(=O)NCc1ccccc1 [CR4, (E,E)-2-(benzylaminocarbonyl)-3-(3,4-dihydroxystyryl)acrylonitrile]
- CFU-GM colony numbers ([1]; 10 μM, 14 days (FIG. 1)): significantly stimulated
- inhibition of BFU-E colony formation ([1]; 10 μM, 14 days (FIG. 1)): some inhibition
- effect upon normal cell survival ([1]; at concentrations equivalent to those inhibiting AML-3 cells: 300-600 nM): no effect
- effect upon normal cells ([1]; at concentrations equivalent to those inhibiting HuNS1 cells: high nanomolar to low micromolar (2.5 μM)): no effect
- effect upon normal cells ([1]; at concentrations equivalent to those inhibiting Ly-MN cells: nanomolar doses to 2.5 μM): no effect
- effect upon normal cells ([1]; at concentrations equivalent to those inhibiting OCl-LY2 cells: high nanomolar to low micromolar (2.5 μM)): no effect
- effect upon normal cells ([1]; at concentrations equivalent to those inhibiting Ph+ ALL cells: low nanomolar doses (35-100)): no effect
- effect upon normal cells ([1]; at concentrations equivalent to those inhibiting Z119 cells: low nanomolar doses): no effect
- toxicity upon normal bone marrow ([1]; doses up to 5 μM, colonies at 14 days (FIG. 1)): negligible toxicity
- normal cell growth and differentiation ([1]; low nanomolar doses, long term exposure): unaffected
- toxicity to normal cells incubated with compound ([1]; until concentrations of 10-20 μM or greater were achieved): minimal toxicity
- inhibition of cell proliferation and survival ([2]; by 2.5 μM): inhibition
- inhibition of cell proliferation and survival ([2]; nanomolar doses): significantly inhibited
